Measured values reported in patent US20120135866A1, “INCREASING PLANT VIGOR” (DOW AGROSCIENCES LLC, priority 2007, published 2012).
“Also recorded” adds a separate entry of the source.

Key:
Assay type in all cases: in vivo
[1] = system: Corn (Zea mays 'M2T783') seeds; test: Test 2: fresh plant weight of corn after seed soak; settings: for Plant Weight % increase: corn seedling weight vs untreated Tween 20 water check, pooled across rates; for Plant Weight (g) Mean: corn, seed soak, pooled across rates 50-0.19 ppm, fresh weight after 13 days; for Tukey's pair-wise comparison of corn plant weight with untreated Tween 20 water check: pooled compound effects, family-wise error rate 0.05
Experimental: Technical samples of Compound A and imidacloprid were dissolved in water containing 0.125% Tween 20 (V:V). […] The treatment concentrations for Compound A and imidacloprid were 50, 12.5, 3.125, 0.78 and 0.19 ppm. Solutions were prepared in excess and 40 ml was added to 50 ml centrifuge tubes. Corn (Zea mays ‘M2T783’) seeds were inspected for uniform size and undamaged condition and were placed into each centrifuge tube containing specific compound by rate solutions. A treatment of only 0.125% aqueous Tween 20 was used to soak corn seeds and served as the untreated check. Tubes containing seeds and compound solutions were held at room temperature and after […] the seeds were removed from each solution, rinsed and planted into sand in 7.5 cm^2 pots. Tissue paper was placed into the bottom of each pot to keep sand from leaching from the pot. A total of 8 reps of each compound by rate combination were planted for both corn. Eight replicate pots of compound by rate combination were arranged in a completely randomized design on greenhouse carts. This arrangement of treated seeds in pots was placed into the greenhouse and watered over the top as needed. Each cart was equipped with a plastic rack that served to raise the pots up off the cart surface and away from any standing water. The carts were placed in the center of the greenhouse and were rotated 180 degrees daily. After 13 days the carts were moved to the laboratory and the plants were cut off at the soil surface and weighed. Fresh plant weight data were analyzed for homogeneity of variance using Levene's test and further evaluated using one way analysis of variance of individual treatment combinations (compound by rate) and pooled by compound across rates. Means were separated using Tukey's mean separation test with a family-wise error rate of 0.05. All analyses were conducted using Minitab
Corn data were homogeneous based on Levene's test for homgeneity of variance (p=0.116 and p=0.69 respectively). AOV of corn data did indicate a difference (F=3.22, P=0.045, df=2) for pooled compound effects but not for individual treatment effects.

[2] = system: cotton aphid (CA) Aphis gossypii; test: Test 1: cotton aphid counts on plants grown from soaked seeds; settings: for Effect on number of aphids vs check: Test 1, seed soak, compound main effect
Experimental: (§1) Seeds were soaked beginning on T=0 days in solutions of either
(§2) Compound A, imidacloprid, or plain water containing 0.125% (v:v) Tween 20 (check treatment). Compounds were formulated as technical material in water containing 0.125% Tween 20. […] Solution concentrations were 50, 5, 0.5, 0.05 and 0.005 ppm. No evaporation was possible and a significant excess of solution was present to ensure abundant availability of either Compound A or imidacloprid from each solution. On average 20 ml of solution was used to soak groups of seed needed for the seed soaking phase of this test. Seeds were removed from these solutions on T=2 days and planted. Seeds exposed to each unique treatment were germinated as a groups in dedicated shallow plastic cups filled with white sand and containing plain water. Planting of these seeds occurred on T=2 days and the seeds were grown in these shallow cups until T=10 days. Initially 70 ml of water was added to each shallow cup at planting and additional water was added to the cups as needed to keep the sand moist. On T=10 days germinating seedlings were transplanted from the shallow germination cups to individual containers (plastic cups−6 reps per treatment) filled with white sand. Thirty ml of water was used to water the plants following transplanting. After the initial treatment water was added to cups as needed to maintain moisture for plant development. On T=14 days each plant was infested with cotton aphid (CA) Aphis gossypii by transferring a small piece of infested foliage to each test plant. The number of aphids transferred to each plant was uniform based on visual estimation. Plants were rated on T=17 days and T=18 days by counting the number of CA and taking the weight of the each plant. The plant part weighed was the aerial portion of the plant cut off at the surface of the sand. Data were analyzed using analysis of variance with an LSD means separation test (Minitab).
Raw data were not homogeneous and so replicate aphid counts were transformed using a square root count+0.5 transformation.

[3] = system: plant grown from soaked seeds; test: Test 1: plant weight (aerial portion) after seed soak; settings: for Effect on plant weight vs check: Test 1, seed soak
Experimental: as §1, §2
Treatment number 4 experienced some negative effects associated with excess watering during the phase when these plants were being germinated. […] Only four replicate plants were able to be planted to individual growing cups. […] Prior to conducting an analysis of individual treatment effects (factorial analysis of variance, LSD means separation test P=0.05, Minitab) on weight Treatment 4 (Compound A 0.05 ppm) was removed from the analysis because it was judged to be an outlier based on poor growth as described above. The paired imidacloprid rate (0.05 ppm, No. 9) was also removed to keep the data balanced.

Compound: CS(=O)(=NC#N)C(Cl)c1ccc(C(F)(F)F)nc1 (stereo not drawn) [Compound A]
- Plant Weight % increase [1]: 38.9%
- Plant Weight (g) Mean [1]: 3.162 g
- Tukey's pair-wise comparison of corn plant weight with untreated Tween 20 water check [1]: significantly different; also recorded: significantly increased plant weight
- Effect on number of aphids vs check [2]: significantly more aphids in the check treatment; also recorded: reduced the number of aphids on plants
- Aphids (#/plant) Rep 1 ([2]; seed soak 0.005 ppm): 72 #/plant
- Aphids (#/plant) Rep 2 ([2]; seed soak 0.005 ppm): 110 #/plant
- Aphids (#/plant) Rep 3 ([2]; seed soak 0.005 ppm): 35 #/plant
- Aphids (#/plant) Rep 4 ([2]; seed soak 0.005 ppm): 70 #/plant
- Aphids (#/plant) Rep 5 ([2]; seed soak 0.005 ppm): 55 #/plant
- Aphids (#/plant) Rep 6 ([2]; seed soak 0.005 ppm): 15 #/plant
- Aphids (#/plant) Rep 1 ([2]; seed soak 0.05 ppm): 70 #/plant
- Aphids (#/plant) Rep 2 ([2]; seed soak 0.05 ppm): 80 #/plant
- Aphids (#/plant) Rep 3 ([2]; seed soak 0.05 ppm): 60 #/plant
- Aphids (#/plant) Rep 4 ([2]; seed soak 0.05 ppm): 35 #/plant
- Aphids (#/plant) Rep 1 ([2]; seed soak 0.5 ppm): 55 #/plant
- Aphids (#/plant) Rep 2 ([2]; seed soak 0.5 ppm): 75 #/plant
- Aphids (#/plant) Rep 3 ([2]; seed soak 0.5 ppm): 65 #/plant
- Aphids (#/plant) Rep 4 ([2]; seed soak 0.5 ppm): 40 #/plant
- Aphids (#/plant) Rep 5 ([2]; seed soak 0.5 ppm): 45 #/plant
- Aphids (#/plant) Rep 6 ([2]; seed soak 0.5 ppm): 30 #/plant
- Aphids (#/plant) Rep 1 ([2]; seed soak 5 ppm): 23 #/plant
- Aphids (#/plant) Rep 2 ([2]; seed soak 5 ppm): 25 #/plant
- Aphids (#/plant) Rep 3 ([2]; seed soak 5 ppm): 33 #/plant
- Aphids (#/plant) Rep 4 ([2]; seed soak 5 ppm): 65 #/plant
- Aphids (#/plant) Rep 5 ([2]; seed soak 5 ppm): 25 #/plant
- Aphids (#/plant) Rep 6 ([2]; seed soak 5 ppm): 32 #/plant
- Aphids (#/plant) Rep 1 ([2]; seed soak 50 ppm): 4 #/plant
- Aphids (#/plant) Rep 2 ([2]; seed soak 50 ppm): 2 #/plant
- Aphids (#/plant) Rep 3 ([2]; seed soak 50 ppm): 2 #/plant
- Aphids (#/plant) Rep 4 ([2]; seed soak 50 ppm): 12 #/plant
- Aphids (#/plant) Rep 5 ([2]; seed soak 50 ppm): 18 #/plant
- Aphids (#/plant) Rep 6 ([2]; seed soak 50 ppm): 2 #/plant
- Effect on plant weight vs check [3]: significant increase in plant weight
- Plant Weight (g) Rep 1 ([3]; seed soak 0.005 ppm): 2.36 g
- Plant Weight (g) Rep 2 ([3]; seed soak 0.005 ppm): 1.76 g
- Plant Weight (g) Rep 3 ([3]; seed soak 0.005 ppm): 2.09 g
- Plant Weight (g) Rep 4 ([3]; seed soak 0.005 ppm): 2.22 g
- Plant Weight (g) Rep 5 ([3]; seed soak 0.005 ppm): 1.92 g
- Plant Weight (g) Rep 6 ([3]; seed soak 0.005 ppm): 1.93 g
- Plant Weight (g) Rep 1 ([3]; seed soak 0.05 ppm): 0.73 g
- Plant Weight (g) Rep 2 ([3]; seed soak 0.05 ppm): 1.35 g
- Plant Weight (g) Rep 3 ([3]; seed soak 0.05 ppm): 1.2 g
- Plant Weight (g) Rep 4 ([3]; seed soak 0.05 ppm): 1.1 g
- Plant Weight (g) Rep 1 ([3]; seed soak 0.5 ppm): 1.84 g
- Plant Weight (g) Rep 2 ([3]; seed soak 0.5 ppm): 1.88 g
- Plant Weight (g) Rep 3 ([3]; seed soak 0.5 ppm): 2.04 g
- Plant Weight (g) Rep 4 ([3]; seed soak 0.5 ppm): 2.13 g
- Plant Weight (g) Rep 5 ([3]; seed soak 0.5 ppm): 1.96 g
- Plant Weight (g) Rep 6 ([3]; seed soak 0.5 ppm): 1.8 g
- Plant Weight (g) Rep 1 ([3]; seed soak 5 ppm): 2.23 g
- Plant Weight (g) Rep 2 ([3]; seed soak 5 ppm): 2.1 g
- Plant Weight (g) Rep 3 ([3]; seed soak 5 ppm): 1.79 g
- Plant Weight (g) Rep 4 ([3]; seed soak 5 ppm): 2.53 g
- Plant Weight (g) Rep 5 ([3]; seed soak 5 ppm): 1.87 g
- Plant Weight (g) Rep 6 ([3]; seed soak 5 ppm): 1.9 g
- Plant Weight (g) Rep 1 ([3]; seed soak 50 ppm): 2.29 g
- Plant Weight (g) Rep 2 ([3]; seed soak 50 ppm): 2.22 g
- Plant Weight (g) Rep 3 ([3]; seed soak 50 ppm): 2.12 g
- Plant Weight (g) Rep 4 ([3]; seed soak 50 ppm): 1.87 g
- Plant Weight (g) Rep 5 ([3]; seed soak 50 ppm): 1.87 g
- Plant Weight (g) Rep 6 ([3]; seed soak 50 ppm): 2.14 g

Compound: O=[N+]([O-])NC1=NCCN1Cc1ccc(Cl)nc1 [Imidacloprid, imidacloprid]
- Plant Weight % increase [1]: 24.8%
- Plant Weight (g) Mean [1]: 2.841 g
- Tukey's pair-wise comparison of corn plant weight with untreated Tween 20 water check [1]: not significantly different
- Effect on number of aphids vs check [2]: significantly more aphids in the check treatment; also recorded: reduced the number of aphids on plants
- Aphids (#/plant) Rep 1 ([2]; seed soak 0.005 ppm): 45 #/plant
- Aphids (#/plant) Rep 2 ([2]; seed soak 0.005 ppm): 125 #/plant
- Aphids (#/plant) Rep 3 ([2]; seed soak 0.005 ppm): 55 #/plant
- Aphids (#/plant) Rep 4 ([2]; seed soak 0.005 ppm): 75 #/plant
- Aphids (#/plant) Rep 5 ([2]; seed soak 0.005 ppm): 80 #/plant
- Aphids (#/plant) Rep 6 ([2]; seed soak 0.005 ppm): 35 #/plant
- Aphids (#/plant) Rep 1 ([2]; seed soak 0.05 ppm): 95 #/plant
- Aphids (#/plant) Rep 2 ([2]; seed soak 0.05 ppm): 60 #/plant
- Aphids (#/plant) Rep 3 ([2]; seed soak 0.05 ppm): 65 #/plant
- Aphids (#/plant) Rep 4 ([2]; seed soak 0.05 ppm): 95 #/plant
- Aphids (#/plant) Rep 5 ([2]; seed soak 0.05 ppm): 75 #/plant
- Aphids (#/plant) Rep 6 ([2]; seed soak 0.05 ppm): 50 #/plant
- Aphids (#/plant) Rep 1 ([2]; seed soak 0.5 ppm): 25 #/plant
- Aphids (#/plant) Rep 2 ([2]; seed soak 0.5 ppm): 44 #/plant
- Aphids (#/plant) Rep 3 ([2]; seed soak 0.5 ppm): 43 #/plant
- Aphids (#/plant) Rep 4 ([2]; seed soak 0.5 ppm): 70 #/plant
- Aphids (#/plant) Rep 5 ([2]; seed soak 0.5 ppm): 80 #/plant
- Aphids (#/plant) Rep 6 ([2]; seed soak 0.5 ppm): 30 #/plant
- Aphids (#/plant) Rep 1 ([2]; seed soak 5 ppm): 33 #/plant
- Aphids (#/plant) Rep 2 ([2]; seed soak 5 ppm): 37 #/plant
- Aphids (#/plant) Rep 3 ([2]; seed soak 5 ppm): 17 #/plant
- Aphids (#/plant) Rep 4 ([2]; seed soak 5 ppm): 18 #/plant
- Aphids (#/plant) Rep 5 ([2]; seed soak 5 ppm): 30 #/plant
- Aphids (#/plant) Rep 6 ([2]; seed soak 5 ppm): 34 #/plant
- Aphids (#/plant) Rep 1 ([2]; seed soak 50 ppm): 0 #/plant
- Aphids (#/plant) Rep 2 ([2]; seed soak 50 ppm): 0 #/plant
- Aphids (#/plant) Rep 3 ([2]; seed soak 50 ppm): 4 #/plant
- Aphids (#/plant) Rep 4 ([2]; seed soak 50 ppm): 7 #/plant
- Aphids (#/plant) Rep 5 ([2]; seed soak 50 ppm): 4 #/plant
- Aphids (#/plant) Rep 6 ([2]; seed soak 50 ppm): 1 #/plant
- Effect on plant weight vs check [3]: increased plant weights compared to the check plants
- Plant Weight (g) Rep 1 ([3]; seed soak 0.005 ppm): 2.07 g
- Plant Weight (g) Rep 2 ([3]; seed soak 0.005 ppm): 1.59 g
- Plant Weight (g) Rep 3 ([3]; seed soak 0.005 ppm): 2.01 g
- Plant Weight (g) Rep 4 ([3]; seed soak 0.005 ppm): 1.67 g
- Plant Weight (g) Rep 5 ([3]; seed soak 0.005 ppm): 1.86 g
- Plant Weight (g) Rep 6 ([3]; seed soak 0.005 ppm): 1.68 g
- Plant Weight (g) Rep 1 ([3]; seed soak 0.05 ppm): 1.38 g
- Plant Weight (g) Rep 2 ([3]; seed soak 0.05 ppm): 1.37 g
- Plant Weight (g) Rep 3 ([3]; seed soak 0.05 ppm): 1.65 g
- Plant Weight (g) Rep 4 ([3]; seed soak 0.05 ppm): 1.57 g
- Plant Weight (g) Rep 5 ([3]; seed soak 0.05 ppm): 1.72 g
- Plant Weight (g) Rep 6 ([3]; seed soak 0.05 ppm): 1.62 g
- Plant Weight (g) Rep 1 ([3]; seed soak 0.5 ppm): 1.61 g
- Plant Weight (g) Rep 2 ([3]; seed soak 0.5 ppm): 1.82 g
- Plant Weight (g) Rep 3 ([3]; seed soak 0.5 ppm): 1.73 g
- Plant Weight (g) Rep 4 ([3]; seed soak 0.5 ppm): 2.05 g
- Plant Weight (g) Rep 5 ([3]; seed soak 0.5 ppm): 1.66 g
- Plant Weight (g) Rep 6 ([3]; seed soak 0.5 ppm): 1.95 g
- Plant Weight (g) Rep 1 ([3]; seed soak 5 ppm): 1.64 g
- Plant Weight (g) Rep 2 ([3]; seed soak 5 ppm): 1.44 g
- Plant Weight (g) Rep 3 ([3]; seed soak 5 ppm): 1.91 g
- Plant Weight (g) Rep 4 ([3]; seed soak 5 ppm): 1.44 g
- Plant Weight (g) Rep 5 ([3]; seed soak 5 ppm): 1.75 g
- Plant Weight (g) Rep 6 ([3]; seed soak 5 ppm): 2.05 g
- Plant Weight (g) Rep 1 ([3]; seed soak 50 ppm): 1.47 g
- Plant Weight (g) Rep 2 ([3]; seed soak 50 ppm): 2.05 g
- Plant Weight (g) Rep 3 ([3]; seed soak 50 ppm): 1.73 g
- Plant Weight (g) Rep 4 ([3]; seed soak 50 ppm): 1.84 g
- Plant Weight (g) Rep 5 ([3]; seed soak 50 ppm): 2.02 g
- Plant Weight (g) Rep 6 ([3]; seed soak 50 ppm): 1.86 g
